Test results: patent US20230414571A1, “APPLICATION OF SMALL-MOLECULE COMPOUND IN PREPARATION OF ANTITUMOR DRUG” (SOOCHOW UNIVERSITY, priority 2021, published 2023)

Legend:
U87 cells = assay: Flow cytometry analysis of U87 cell apoptosis (Annexin V-FITC/PI staining); format: cell-based; settings: 20 μM, 24 hours
Procedure: In a dulbecco's modified eagle medium (DMEM), 5×10^5 U87 cells were inoculated into a 24-hole plate. After culturing for 24 hours, compound 27 (final concentration 20 μM) was directly added to a cell growth medium, incubated at 37° C. for 24 hours, briefly digested with trypsin, washed twice with cold PBS, centrifuged (2000 rpm, 5 min) and washed twice with cold PBS after a supernatant culture medium was discarded. The cells (1×10^5 cells/mL) were resuspended with a 400 μL of buffer solution (1×). 5 μL of Annexin V-FITC was added to the cell suspension and cultured at 4° C. for 15 minutes. Then, the cells were gently mixed with another dye propidium iodide (PI) (10 μL). The cells were collected for flow cytometry analysis. Data analysis was performed by using a CFLow Plus (Accuri Cytometers).
In order to further confirm the occurrence of apoptosis, the applicant tested the exposed phosphatidylserine by using an annexin V/propidium iodide double staining method, and observed a cell membrane damage phenomenon.

hexokinase 2 (HK2) = biological target: T1, hexokinase 2 (HK2) (Homo sapiens, UniProt P52789); assay: HK2 activity test on GLMSD platform (graphite dots MALDI-MS); format: biochemical
T1 sequence (P52789 1-917): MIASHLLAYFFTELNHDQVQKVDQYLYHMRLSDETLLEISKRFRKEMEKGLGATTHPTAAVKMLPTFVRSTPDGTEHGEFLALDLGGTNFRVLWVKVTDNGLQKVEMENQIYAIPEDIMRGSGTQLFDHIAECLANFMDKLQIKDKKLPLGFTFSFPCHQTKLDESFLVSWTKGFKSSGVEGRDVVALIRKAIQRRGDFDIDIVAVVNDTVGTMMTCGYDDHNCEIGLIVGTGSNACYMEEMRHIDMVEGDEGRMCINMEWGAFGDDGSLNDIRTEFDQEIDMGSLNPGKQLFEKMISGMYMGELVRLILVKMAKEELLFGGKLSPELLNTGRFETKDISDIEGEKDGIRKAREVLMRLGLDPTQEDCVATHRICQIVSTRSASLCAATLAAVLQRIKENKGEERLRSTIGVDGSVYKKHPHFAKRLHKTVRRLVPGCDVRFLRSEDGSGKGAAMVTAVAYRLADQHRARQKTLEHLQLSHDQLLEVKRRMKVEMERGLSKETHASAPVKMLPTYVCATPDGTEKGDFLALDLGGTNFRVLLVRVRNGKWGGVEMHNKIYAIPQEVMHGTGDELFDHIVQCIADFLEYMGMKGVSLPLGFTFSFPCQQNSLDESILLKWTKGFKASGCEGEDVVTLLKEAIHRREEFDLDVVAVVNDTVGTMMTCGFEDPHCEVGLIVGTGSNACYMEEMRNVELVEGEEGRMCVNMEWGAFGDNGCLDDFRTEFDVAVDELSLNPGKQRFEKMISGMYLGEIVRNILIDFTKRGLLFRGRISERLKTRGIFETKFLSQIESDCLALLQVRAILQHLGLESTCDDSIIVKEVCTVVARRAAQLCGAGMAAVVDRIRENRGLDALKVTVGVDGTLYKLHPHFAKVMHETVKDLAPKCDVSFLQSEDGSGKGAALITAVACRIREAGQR
Procedure: GDs were dispersed in water at a concentration of 1 mg/mL as a matrix solution to be used. A sample was prepared by using a quick-drying method: firstly, 1 μL of matrix solution was dropped onto a target plate, and after natural drying at a room temperature in a […], 1 μL of sample to be analyzed was dropped onto a surface of the dried matrix, and after the sample was naturally dried, mass spectrometry was directly performed:
An instrument in the MALDI-MS was a Bruker Ultraflex III TOF/TOF mass spectrometer, which was mainly in a reflection positive and negative ion mode. Nd of 355 nm for instrument parameter: YAG laser had laser energy of 30% corresponding to 57 μJ per pulse (laser pulse duration: 3 ns), a laser spot size was about 50-100 μm, each sample was repeatedly tested four times, and 3000 laser spots were accumulated in each mass spectrum. All samples were measured under the same instrumental conditions.
an inhibition rate=(1−B/A)×100%, where • A was: a glucose concentration in a pre-reaction solution without the inhibitor-a glucose concentration in a post-reaction solution without the inhibitor, • B was: a glucose concentration in a pre-reaction solution with the inhibitor-a glucose concentration in a post-reaction solution with the inhibitor, and • a glucose concentration in the reaction solution=(mass spectrum signal strength of [glucose+Na]+/mass spectrum signal strength of [glucose-1-^13C+Na]+)×known concentration of glucose-1-^13C.

[1] = Plasma pharmacokinetics in mice determined by GLMSD; format: in vivo, mouse; settings: mouse, in vivo, 40 mg/kg
Procedure: It can be seen from FIG. 8-1 that the GLMSD platform can specifically acquire the pharmacokinetic data of small-molecule compound 27. Competitive advantages of GLMSD in pharmacokinetic research: (1) a complete drug blood concentration curve of each individual may be tracked; and (2) the total number of mice used in the test is reduced. Since the blood sample consumption of the GLMSD method is low (10 μL of blood per time point), one mouse can be used for completing the entire pharmacokinetic curve (blood sampling at 11 time points within 24 hours, and the minimum interval being 0.25 hour) of a drug.
Based on the advantage that the complete PK curve can be tested by means of the GLMSD, we observe that 3 (#2, #3 and #4) in 8 mice have the characteristic re-absorption peak of this small-molecule inhibitor at the time point of 8 h, and such a characteristic re-absorption peak hardly exists in other 5 mice. This significant phenomenon is related to drug uptake differences between individuals, prompting that compound 27 may re-enter blood circulation by means of a secondary absorption pathway. In the mode of continuous multiple administration (c in FIG. 8-2), pharmacokinetic data of compound 27 (40 mg/kg) was collected from each mouse every day (1, 3, 6, and 8 hours after last administration) for 5 days. For a single dose (a in FIG. 8-2) or a continuous multi-dose (d in FIG. 8-2) administration manner, a limitation of a conventional LC-MS technology lies in obtaining a single data point of pharmacokinetics of a drug by sacrificing one mouse, whereas GLMSD can break through this limitation by providing a complete pharmacokinetic curve based on a single mouse.

[2] = tested on: cranial nerve glioma cell U87; assay: Antiproliferative activity against cranial nerve glioma cell U87; format: cell-based; settings: Homo sapiens, U-87 MG; U87 cells; read-out: concentration at which half of the tumor cells are killed
Excerpt: FIG. 14 is an antiproliferative activity test diagram of compound 8, compound 11, compound 13, and compound 21 against a cranial nerve glioma cell U87.

For `CCOc1ccc(C(=O)NCCCN(C)CCCN(C)Cc2ccccc2)cc1Br` [compound 27], the “early (Annexin+/PI−) apoptotic cells” value (U87 cells) was 31.2%, the “late (Annexin+/PI+) apoptotic cells” value (U87 cells) was 30.6% and the “inhibitory effect on the HK2” value (hexokinase 2 (HK2); inhibition curves FIGS. 3-7, colorimetric kit and GLMSD) was “good inhibitory effects”. It also gave an inhibition at 20 µM (hexokinase 2 (HK2); small-molecule concentration of the inhibitor 20 μM, GLMSD, read-out: inhibition rate of HK2 activity) of 31%, an AUC(0-t) [1] of 64.4 µg·h/mL and a Cmax [1] of 14.7 µg/mL. The Tmax [1] was 2 h, the half-life [1] was 4.12 h and the IC50 [2] was 11.3 µM.
